We go through 3 molecules from patent US7326790B2, “Diphenylisoxazole compounds and hydro isomers thereof” (Rigel Pharmaceuticals, Inc., priority 2003, dated 2008).

By IC50 is commonly meant the concentration that inhibits the measured activity by half.

This experiment relates to HCV replicon (5-2 Luc replicon-comprising cells). Description: HCV replicon assay (luciferase). The following applies: Hepatitis C virus; 5-2 Luc replicon cells, 24 hours with compound, luciferase activity. The experiment is classed as cell-based. The text has this: In one embodiment, the inhibitory activity of the compounds can be confirmed in a replicon assay that assesses the ability of a test compound to block or inhibit HCV replication in replicon cells. One example of a suitable replicon assay is the liver cell-line Huh 7-based replicon assay described in Lohmann et al., 1999, Science 285:110-113. A specific example of this replicon assay which utilizes luciferase translation is provided in the Examples Section. In one embodiment of this assay, the amount of test compound that yields a 50% reduction in translation as compared to a control cell (IC50) may be determined.
The inhibitory activity of certain exemplary compounds of the invention was confirmed using an HCV replicon assay. The HCV replicon can include such features as the HCV 5′ untranslated region including the HCV IRES, the HCV 3′ untranslated region, selected HCV genes encoding HCV polypeptides, selectable markers, and a reporter gene such as luciferase, GFP, etc. In the assay, actively dividing 5-2 Luc replicon-comprising cells (obtained from Ralf Bartenschlager; see Lohmann et al., 1999, Science 285:110-113) were seeded at a density of between about 5,000 and 7,500 cells/well onto 96 well plates (about 90 μl of cells per well) and incubated at 37° C. and 5% CO2 for 24 hours. Then, the test compound (in a volume of about 10 μl) was added to the wells at various concentrations and the cells were incubated for an additional 24 hours before luciferase assay. Briefly, the Bright-Glo reagent was diluted 1:1 with PBS and 100 μl of diluted reagent was added to each well. After 5 min of incubation at room temperature, luciferin emission was quantified with a luminometer. In this assay, the amount of test compound that yielded a 50% reduction in luciferase activity (IC50) was determined.
For orientation: Replicon systems follow genome replication, usually without infectious particles.

For `O=C(Nc1cccc(-c2cc(-c3c(Cl)cccc3Cl)on2)c1)C(Cl)Cl` [Compound 39, 2,2-Dichloro-N-[3-[5-(2,6-dichlorophenyl)-3-isoxazolyl]phenyl]Acetamide], the IC50 was less than 10 µM.

Consider `O=C(Nc1ccc(-c2cc(-c3ccccc3Cl)no2)cc1)C(Cl)Cl` [Compound 55, 2,2-Dichloro-N-[4-[3-(2-chlorophenyl)-5-isoxazolyl]phenyl]Acetamide], for which the IC50 was no more than 10 µM.

Consider `O=C(Nc1ccc(-c2cc(-c3c(F)cccc3F)no2)cc1)C(Cl)Cl` [Compound 59, 2,2-Dichloro-N-[4-[3-(2,6-difluorophenyl)-5-isoxazolyl]phenyl]Acetamide], for which the IC50 is no more than 10 µM.
